Results from patent publication EP0192327A2, “Use of phosphonoformic acid and its esters and salts for the manufacture of a medicament for the treatment of AIDS” (THE WELLCOME FOUNDATION LIMITED, priority 1985, dated 1986).

Tests used:
[1] = Toxicity: cytotoxicity in FE-10 cells; format: cell-based; settings: FE-10 (mouse modified 3T3) cells, no cytotoxicity up to 100µM, read-out: concentrations at which no cytotoxicity was observed
[2] = tested on: HTLV-III; assay: Antiviral activity: protection of target T cells against the cytopathic effects of HTLV-III; format: cell-based; settings: Human immunodeficiency virus 1, T-cell; target T cells infected with HTLV-III; protection at 10µM and above; read-out: concentrations found to protect target T cells against the cytopathic effects of HTLV-III
Method: The compound of formula (1) in which R^1, R^2 and R^3 each represent a hydrogen atom was tested and found to protect target T cells against the cytopathic effects of HTLV-III at concentrations of 10µM and above.

## O=C(O)P(=O)(O)O [phosphonoformic acid]
[1]
  MNTC: ≥ 100 µM
[2]
  minimal effective concentration: ≥ 10 µM
